Test results from ChEMBL document CHEMBL4483862, “Open-source discovery of chemical leads for next-generation chemoprotective antimalarials” (2018).

Test system: Plasmodium berghei
Test: Luciferase/luciferin-expressing antifolate-resistant parasites were used to infect a culture of HepG2 cells that were pre-incubated with compounds. Infected hepatocytes emit light due to the luciferase reaction. Assay results are presented as the percent inhibition of light emission compared to control. […]
Assay type: functional
Conditions: sporozoite; for IC90: read-out: LUCIFERASE INFECTION ASSAY - IC90
[1] = read-out: LUCIFERASE INFECTION ASSAY - IC50

Compound: Cc1cccc(C)c1N(C(=O)CCNC(=O)c1ccccc1Cl)c1nc2ccccc2s1
- IC50 [1]: > 10 µM
- IC90: > 10 µM

Compound: O=C(CN1CCN(CC(=O)N(Cc2ccccc2)Cc2ccccc2)CC1)Nc1ccc(Cl)c(C(F)(F)F)c1
- IC50 (PBLUC_HILL_SLOPE 18.3, PBLUC_R_SQUARED 0.38, read-out: LUCIFERASE INFECTION ASSAY - IC50): 9.55 µM
- IC90: > 10 µM

Compound: Fc1ccccc1-n1cnnc1SC(c1ccccc1)c1ccccc1
- IC50 (PBLUC_HILL_SLOPE 1.8, PBLUC_R_SQUARED 0.792, read-out: LUCIFERASE INFECTION ASSAY - IC50): 0.57 µM
- IC90: 1.93 µM

Compound: CN1CCCN(C(=O)C2CCN(c3oc(-c4ccco4)nc3C#N)CC2)c2nc3ccccc3nc21
- IC50 (PBLUC_HILL_SLOPE 11.5, PBLUC_R_SQUARED 0.327, read-out: LUCIFERASE INFECTION ASSAY - IC50): 3.86 µM
- IC90: 4.67 µM

Compound: COc1ccc(-c2cc(NC(=O)c3cc(Cl)c(Cl)[nH]3)ccc2OC)cc1
- IC50 [1]: 3.49 µM
- IC90: 4.33 µM

Compound: COc1ccc(NC(=O)C(OC(=O)c2ccccc2SCC(=O)Nc2c(C)n(C)n(-c3ccccc3)c2=O)c2ccccc2)cc1Cl (centres undefined)
- IC50 [1]: > 10 µM
- IC90: > 10 µM

Compound: CCOC(=O)c1c(C)[nH]c(C(=O)CSc2nccn2C)c1C
- IC50 (FFLUC_HILL_SLOPE 13.6, FFLUC_R_SQUARED 0.648, PBLUC_HILL_SLOPE 159, PBLUC_R_SQUARED 0.464, read-out: LUCIFERASE INFECTION ASSAY - IC50): 0.201 µM
- IC90: 0.204 µM

Compound: O=C(Nc1cccc(-c2nc(-c3cccc(F)c3)cs2)c1)C1CC1
- IC50 (PBLUC_HILL_SLOPE 2.07, PBLUC_R_SQUARED 0.228, read-out: LUCIFERASE INFECTION ASSAY - IC50): 5.44 µM
- IC90: > 10 µM

Compound: C=CCn1c(COc2ccc(CC)cc2)nnc1SCC(=O)/C(C#N)=C(\C)N
- IC50 (HEPG2TOX_HILL_SLOPE 17.4, HEPG2TOX_R_SQUARED 0.832, PBLUC_HILL_SLOPE 1.76, PBLUC_R_SQUARED 0.574, read-out: LUCIFERASE INFECTION ASSAY - IC50): 6.67 µM
- IC90: > 10 µM

Compound: CCOc1ccc(C(C)=O)cc1CSc1nc2ccccc2c(=O)n1C(C)COC (centres undefined)
- IC50 (HEPG2TOX_HILL_SLOPE 2.93, HEPG2TOX_R_SQUARED 0.419, PBLUC_HILL_SLOPE 1.84, PBLUC_R_SQUARED 0.699, read-out: LUCIFERASE INFECTION ASSAY - IC50): 1.21 µM
- IC90: 3.98 µM

Compound: CC(C)Cc1ccc(C(=O)CC(Sc2ccccc2N)c2ccc(C(F)(F)F)cc2)cc1 (centres undefined)
- IC50 (FFLUC_HILL_SLOPE 10.1, FFLUC_R_SQUARED 0.429, PBLUC_HILL_SLOPE 1.99, PBLUC_R_SQUARED 0.752, read-out: LUCIFERASE INFECTION ASSAY - IC50): 0.15 µM
- IC90: 0.452 µM

Compound: CCN(CCNc1ncnc2sc3c(c12)CCC3)c1cccc(C)c1
- IC50 (HEPG2TOX_HILL_SLOPE 1.22, HEPG2TOX_R_SQUARED 0.961, PBLUC_HILL_SLOPE 11.3, PBLUC_R_SQUARED 0.508, read-out: LUCIFERASE INFECTION ASSAY - IC50): 1.18 µM
- IC90: 1.44 µM

Compound: CCn1nnc2cc(C(=O)Nc3cc(C(F)(F)F)ccc3N(C)C)ccc21
- IC50 (PBLUC_HILL_SLOPE 154, PBLUC_R_SQUARED 0.344, read-out: LUCIFERASE INFECTION ASSAY - IC50): 7.63 µM
- IC90: 7.74 µM

Compound: NC(=O)c1cccc(-c2cn3c(-c4ccccc4)cnc3cn2)c1
- IC50 (HEPG2TOX_HILL_SLOPE 0.15, HEPG2TOX_R_SQUARED 0.654, PBLUC_HILL_SLOPE 0.762, PBLUC_R_SQUARED 0.254, read-out: LUCIFERASE INFECTION ASSAY - IC50): > 10.5 µM
- IC90: > 10.5 µM

Compound: Cc1nn(Cc2ccc(F)cc2)c2sc(C(=O)NCc3nnc4ccc(C(F)(F)F)cn34)cc12
- IC50 [1]: > 10 µM
- IC90: > 10 µM

Compound: Cc1nnc(Sc2ccc([N+](=O)[O-])c(Sc3nnc(C)s3)n2)s1
- IC50 (HEPG2TOX_HILL_SLOPE 6.33, HEPG2TOX_R_SQUARED 0.72, PBLUC_HILL_SLOPE 8.1, PBLUC_R_SQUARED 0.222, read-out: LUCIFERASE INFECTION ASSAY - IC50): > 8.58 µM
- IC90: > 8.58 µM

Compound: O=[N+]([O-])c1ccc(N2CCN(c3ncccc3C(F)(F)F)CC2)nc1
- IC50 (HEPG2TOX_HILL_SLOPE 6.77, HEPG2TOX_R_SQUARED 0.465, read-out: LUCIFERASE INFECTION ASSAY - IC50): > 9.34 µM
- IC90: > 9.34 µM

Compound: COc1ccc(S(=O)(=O)N2CCSc3cc(Cl)ccc32)cc1
- IC50 (HEPG2TOX_HILL_SLOPE 2.85, HEPG2TOX_R_SQUARED 0.925, PBLUC_HILL_SLOPE 20.1, PBLUC_R_SQUARED 0.623, read-out: LUCIFERASE INFECTION ASSAY - IC50): 2.85 µM
- IC90: 3.18 µM

Compound: Cc1oc(-c2ccccc2)nc1C(=O)N(C)CC(=O)Nc1ccc(N2CCOCC2)cc1
- IC50 (FFLUC_HILL_SLOPE 0.476, FFLUC_R_SQUARED 0.109, HEPG2TOX_HILL_SLOPE 11.6, HEPG2TOX_R_SQUARED 0.88, read-out: LUCIFERASE INFECTION ASSAY - IC50): > 10 µM
- IC90: > 10 µM

Compound: O=C(CCN1c2ccccc2Sc2ccccc21)N1CCCS/C1=N\c1ccccc1
- IC50 [1]: > 10 µM
- IC90: > 10 µM

Compound: CCN(CC)c1ccc(S(=O)(=O)N2CCCCC2)cc1NC(=O)c1ccc2c(c1)nnn2CC
- IC50 (FFLUC_HILL_SLOPE 1.06, FFLUC_R_SQUARED 0.385, read-out: LUCIFERASE INFECTION ASSAY - IC50): > 10 µM
- IC90: > 10 µM

Compound: O=C(c1cc(S(=O)(=O)Nc2cccc(-n3cccn3)c2)c[nH]1)N1CCCC1
- IC50 [1]: 9.51 µM
- IC90: > 10 µM

Compound: Cc1c(Cl)cccc1N=C(NS(=O)(=O)c1cccs1)c1ccccc1
- IC50 [1]: > 10 µM
- IC90: > 10 µM

Compound: CC1CCc2c(sc3nc(CN4CCOCC4)nc(Oc4ccc(Cl)c5cccnc45)c23)C1 (centres undefined)
- IC50 [1]: > 10 µM
- IC90: > 10 µM

Compound: CC1=C(C(=O)OCc2ccccc2)C(c2ccc(C(F)(F)F)cc2)CC(=O)N1 (centres undefined)
- IC50 [1]: > 8.48 µM
- IC90: > 8.48 µM

Compound: CS(=O)(=O)c1ccc(S(=O)(=O)Nc2cccc3c2CCCC3)cc1
- IC50 [1]: > 10 µM
- IC90: > 10 µM

Compound: CCOC(=O)c1sc(N(Cc2ccccc2)C(=O)C2CC2C)nc1C (centres undefined)
- IC50 (PBLUC_HILL_SLOPE 0.389, PBLUC_R_SQUARED 0.128, read-out: LUCIFERASE INFECTION ASSAY - IC50): 1.6 µM
- IC90: > 10 µM

Compound: OCc1ccc(-c2cn3c(-c4cccc(OC(F)(F)F)c4)cnc3cn2)cc1
- IC50 (PBLUC_HILL_SLOPE 9.63, PBLUC_R_SQUARED 0.631, read-out: LUCIFERASE INFECTION ASSAY - IC50): 3.86 µM
- IC90: 4.85 µM

Compound: COc1ccccc1C(=O)Nc1c(C#N)cnn1-c1nc(C)cc(C)n1
- IC50 (PBLUC_HILL_SLOPE 2.98, PBLUC_R_SQUARED 0.592, read-out: LUCIFERASE INFECTION ASSAY - IC50): 3.8 µM
- IC90: 7.94 µM

Compound: Cc1ccc(NCC(=O)NC(=O)Nc2cccc(C)c2C)cc1S(=O)(=O)N1CCCCC1
- IC50 (HEPG2TOX_HILL_SLOPE 1.43, HEPG2TOX_R_SQUARED 0.867, PBLUC_HILL_SLOPE 1.55, PBLUC_R_SQUARED 0.466, read-out: LUCIFERASE INFECTION ASSAY - IC50): 2.55 µM
- IC90: > 10 µM

Compound: COc1ccc(-c2cnc3ccc(NCc4cccc(Cl)c4)nn23)cc1
- IC50 (HEPG2TOX_HILL_SLOPE 4.15, HEPG2TOX_R_SQUARED 0.863, PBLUC_HILL_SLOPE 14.2, PBLUC_R_SQUARED 0.0441, read-out: LUCIFERASE INFECTION ASSAY - IC50): 6.9 µM
- IC90: 8.06 µM

Compound: O=C1CC(c2ccccc2Cl)Cc2c1cnn2-c1nc2ccccc2[nH]1 (centres undefined)
- IC50 [1]: 3.26 µM
- IC90: 3.82 µM

Compound: CC(=O)N(c1nn(CN(C2CC2)C2CCS(=O)(=O)C2)c(=S)s1)C1CC1 (centres undefined)
- IC50 (FFLUC_HILL_SLOPE 12.8, FFLUC_R_SQUARED 0.42, read-out: LUCIFERASE INFECTION ASSAY - IC50): > 10 µM
- IC90: > 10 µM

Compound: CNc1nc2cnc(-c3ccc(O)c(OC)c3)cc2n1Cc1ccccc1
- IC50 [1]: 3.17 µM
- IC90: 3.99 µM

Compound: C=CCN(CC=C)C(CNc1ccc2nnc(C(F)(F)F)n2n1)C(C)C (centres undefined)
- IC50 (PBLUC_HILL_SLOPE 8.1, PBLUC_R_SQUARED 0.171, read-out: LUCIFERASE INFECTION ASSAY - IC50): 8.34 µM
- IC90: > 10 µM

Compound: FC(F)(F)c1cc(Nc2ncnc3sc(-c4ccccc4)cc23)ccc1Cl
- IC50 (FFLUC_HILL_SLOPE 9.86, FFLUC_R_SQUARED 0.42, HEPG2TOX_HILL_SLOPE 7.8, HEPG2TOX_R_SQUARED 0.241, read-out: LUCIFERASE INFECTION ASSAY - IC50): > 10 µM
- IC90: > 10 µM

Compound: Nc1ccccc1C(=O)Nc1cc(C(F)(F)F)cc(C(F)(F)F)c1
- IC50 [1]: > 9.48 µM
- IC90: > 9.48 µM

Compound: COc1cc(OC)cc(-c2cnc3cnc(-c4ccccc4N(C)C)cn23)c1
- IC50 (HEPG2TOX_HILL_SLOPE 1.54, HEPG2TOX_R_SQUARED 0.879, PBLUC_HILL_SLOPE 8.17, PBLUC_R_SQUARED 0.657, read-out: LUCIFERASE INFECTION ASSAY - IC50): 2.43 µM
- IC90: 3.18 µM

Compound: N#C/C(=N\Nc1cc(C(F)(F)F)cc(C(F)(F)F)c1)S(=O)(=O)c1ccc(Cl)cc1
- IC50 (FFLUC_HILL_SLOPE 2.02, FFLUC_R_SQUARED 0.178, HEPG2TOX_HILL_SLOPE 2.35, HEPG2TOX_R_SQUARED 0.941, PBLUC_HILL_SLOPE 1.74, PBLUC_R_SQUARED 0.757, read-out: LUCIFERASE INFECTION ASSAY - IC50): 0.488 µM
- IC90: 1.73 µM

Compound: CCn1ncc2c(C(=O)Nc3ccc(-c4cn5ccsc5n4)cc3)cc(-c3cccs3)nc21
- IC50 (PBLUC_HILL_SLOPE 2.78, PBLUC_R_SQUARED 0.317, read-out: LUCIFERASE INFECTION ASSAY - IC50): 7.98 µM
- IC90: > 10 µM

Compound: CC(c1nc(N)nc(N(C)C)n1)N1CCN(C(c2ccc(F)cc2)c2ccc(F)cc2)CC1 (centres undefined)
- IC50 (PBLUC_HILL_SLOPE 16.2, PBLUC_R_SQUARED 0.638, read-out: LUCIFERASE INFECTION ASSAY - IC50): 3.31 µM
- IC90: 3.79 µM

Compound: CC(C)(C)c1ccc(COc2cccnc2N=CNO)cc1
- IC50 (PBLUC_HILL_SLOPE 1.74, PBLUC_R_SQUARED 0.362, read-out: LUCIFERASE INFECTION ASSAY - IC50): 6.6 µM
- IC90: > 11 µM
